Experimental data taken from BindingDB's records for doi:10.3109/14756366.2013.777717 (Tokushima Bunri University, 2014).
pIC50, pKi: −log10 of the molar value.

Target: T1, Sphingomyelinase C (Bacillus cereus, UniProt P11889)
T1 sequence (P11889 whole entry): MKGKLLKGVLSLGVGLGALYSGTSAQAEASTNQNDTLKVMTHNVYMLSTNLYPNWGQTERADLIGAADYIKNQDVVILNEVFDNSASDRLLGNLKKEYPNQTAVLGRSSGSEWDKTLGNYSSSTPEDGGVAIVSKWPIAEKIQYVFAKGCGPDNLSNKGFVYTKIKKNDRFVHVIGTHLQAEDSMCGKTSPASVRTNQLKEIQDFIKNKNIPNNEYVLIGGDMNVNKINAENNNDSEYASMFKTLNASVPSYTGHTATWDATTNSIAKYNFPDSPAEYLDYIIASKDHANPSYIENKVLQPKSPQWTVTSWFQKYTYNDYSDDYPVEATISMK
Test: Turbidometric Assay
Conditions: pH 7.5; 37 °C
Method: Briefly, Bc-SMase (50 ng/ml) was treated at 37 °C for 60 min with various compounds that were solubilized in dimethylacetoamide. The reaction mixture was incubated at 37 °C for 5 h with 1.0mM SM from bovine brain (Nacalai, Kyoto, Japan) that was solubilized in a solution containing 20mM Tris-HCl (pH 7.5), 1.0% sodium cholate, and 1mM MgCl2. The turbidity of the reaction mixture was analysed by absorption spectrometer at 620 nm.

Going from `CCCCCCCCCCCCC/C=C/[C@@H](O)[C@H](COCc1cccc(-c2ccccn2)n1)NC(=O)CCCCC` [RY221B-a] to `CCCCCCCCCCCCC/C=C/[C@@H](O)[C@H](COCc1cccc(-c2ccccn2)c1)NC(=O)CCCCC` [SMY-632], the pIC50 falls from 5.92 to less than 4.70. The first is the more potent here.

Compared with `CCCCCCCCCCCCC/C=C/[C@@H](Oc1cccc(-c2ccccn2)n1)[C@H](CO)NC(=O)CCCCC` [RY221B-b], `CCCCCCCCCCCCC/C=C/[C@@H](Oc1cccc(-c2ccccn2)n1)[C@H](COCc1cccc(-c2ccccn2)n1)NC(=O)CCCCC` [SMY-610] is higher in pIC50: less than 4.70 for the first, 5.48 for the second. The second is the more potent here.

Compared with `CCCCCC(=O)N[C@@H](COCc1cccc(-c2ccccn2)n1)[C@H](O)/C=C/COc1ccc(C(=O)c2ccccc2)cc1` [SMY-469a], `CCCCCC(=O)N[C@@H](COCc1cccc(-c2ccccn2)n1)[C@H](O)c1ccccc1` [SMY-540] is higher in pIC50: less than 4.70 for the first, 6.10 for the second. The second is the more potent here.

First: CCCCCCCCCCCCC/C=C/[C@@H](O)[C@@H](N)COCc1cccc(-c2ccccn2)n1 [SMY-471]
Second: CCCCCCCCCCCCC/C=C/[C@@H](O)[C@H](COCc1cccc(-c2ccccn2)n1)NC(=O)OC(C)(C)C [SMY-579]
The pIC50 of the first is 1.31 log units higher: 6.05 for the first, 4.74 for the second. The first is the more potent here.

`CCCCCCCCCCCCCCC[C@@H](O)[C@H](COCc1cccc(-c2ccccn2)n1)NC(=O)CCCCC` [SMY-584] and `CCCCCCCCCCCCCCCCOC[C@H](COCc1cccc(-c2ccccn2)n1)OCCCCCCCCCCCCCCCC` [TOM-2-37] cannot be ordered by pIC50: less than 4.70 for the first, less than 4.70 for the second.

`CCCCCC(=O)OC[C@H](COCc1cccc(-c2ccccn2)n1)OC(=O)CCCCC` [TOM-2-7] and `CCCCCCOC[C@H](COCc1cccc(-c2ccccn2)n1)OCCCCCC` [TOM-2-18] cannot be ordered by pIC50: less than 4.70 for the first, less than 4.70 for the second.

Going from `CCCCCCCCCCCCC/C=C/[C@@H](O)[C@H](COCc1cccc(-c2ccccn2)n1)NC(=O)CCCCC` [RY221B-a] to `CCCCCCCCCCCCC/C=C/[C@@H](O)[C@@H](N)COCc1cccc(-c2ccccn2)n1` [SMY-471], the pKi rises from 5.28 to 5.55 (0.27 log units). The second binds more tightly here.

Work on `CCCCCC(=O)N[C@@H](COCc1cccc(-c2ccccn2)n1)[C@H](O)c1ccccc1` [SMY-540] yielded a pKi of 5.89.
